Data taken from ChEMBL document CHEMBL3045638, “Quantitative structure-activity relationship of terpenoid aphid antifeedants” (2008).

What follows are compounds tested on Lipaphis erysimi (assay: Antifeedant activity against apterous adult stage of Lipaphis erysimi (mustard aphids) in compound pre-treated cabbage leaves assessed as antifeedant ratio measured after 48 hr).
Assay type: functional

Q: With `CC(=O)OCCC1C2CCC(C2)C1(C)C` (stereo unspecified) as the compound, how does the Ratio read?
A: Its Ratio is 0.628.

Q: For `CCC(=O)OC1CC(C(C)(C)O)CC=C1C` (stereo unspecified), which Ratio is on record?
A: Its Ratio is 0.526.

Q: With `CCCOCCC1=CCC2CC1C2(C)C` (stereo unspecified) as the compound, how does the Ratio read?
A: Its Ratio is 0.504.

Q: `CCC(CCCC1C2CCC(C2)C1(C)C)OC(C)=O` (stereo unspecified) was tested. Which Ratio did it give?
A: Its Ratio is 0.83.

Q: `CCC(=O)OC1CC(C)CCC1C(C)C` (stereo unspecified) was tested. Which Ratio did it give?
A: Its Ratio is 0.505.

Q: For `CCC(CCC1C2CCC(C2)C1(C)C)C(C)OC(C)=O` (stereo unspecified), which Ratio is on record?
A: Its Ratio is 0.786.

Q: `CC1=CCC(C(C)(C)O)CC1OC=O` (stereo unspecified) was tested. Which Ratio did it give?
A: Its Ratio is 0.42.

Q: Which Ratio does the source give for `CCOCCC1=CCC2CC1C2(C)C` (stereo unspecified) here?
A: The Ratio was 0.522.

Q: `COCCC1=CCC2CC1C2(C)C` (stereo unspecified) was tested. Which Ratio did it give?
A: The Ratio was 0.548.

Q: For `CC(=O)OC1CC(C(C)(C)O)CC=C1C` (stereo unspecified), which Ratio is on record?
A: The Ratio was 0.476.

Q: Which Ratio does the source give for `C=C(C)C1CC=C(CCOC(=O)CC)CC1` (stereo unspecified) here?
A: Its Ratio is 0.701.

Q: With `CC1(C)C2CC=C(CCOC=O)C1C2` (stereo unspecified) as the compound, how does the Ratio read?
A: Its Ratio is 0.518.

Q: With `C=C(C)C1CC=C(CCOC(C)=O)CC1` (stereo unspecified) as the compound, how does the Ratio read?
A: The Ratio was 0.674.

Q: For `CC1(C)C2CC3OC3(C)C1C2` (stereo unspecified), which Ratio is on record?
A: Its Ratio is 0.415.

Q: Which Ratio does the source give for `CCCC(CCCC1C2CCC(C2)C1(C)C)OC(C)=O` (stereo unspecified) here?
A: Its Ratio is 0.813.

Q: For `CC1(C)C2CC=C(CCO)C1C2` (stereo unspecified) [Nopol], which Ratio is on record?
A: The Ratio was 0.47.

Q: For `CC1=CCC(C(C)(C)O)CC1O` (stereo unspecified) [SOBREROL], which Ratio is on record?
A: Its Ratio is 0.463.

Q: How did the Ratio turn out when `CC1CCC(C(C)C)C(O)C1` (stereo unspecified) [MENTHOL] was run?
A: The Ratio was 0.584.

Q: For `CC(=O)OCCC1=CCC2CC1C2(C)C` (stereo unspecified), which Ratio is on record?
A: The Ratio was 0.572.

Q: How did the Ratio turn out when `CC(=O)OC1CC(C)CCC1C(C)C` (stereo unspecified) was run?
A: The Ratio was 0.533.

Q: How did the Ratio turn out when `CCC(=O)OCCC1=CCC2CC1C2(C)C` (stereo unspecified) was run?
A: Its Ratio is 0.63.
